Measurements: publication PMC11052790 (Clinical Pharmacokinetics, 2024)
Marks after values point to notes of the source that are not given here.

How the values were obtained:
[1] = system: CYP3A4; assay: CYP3A4 activity time course with microdosed oral midazolam
[2] = molecular target: CYP2C19 (Homo sapiens, UniProt P33261); conditions: after ritonavir discontinuation vs baseline
[3] = healthy volunteers, 6 days of high-dose ritonavir 600 mg bid; cited from earlier work
[4] = with ketoconazole vs alone, previous trial EudraCT 2017-004453; cited from earlier work
[5] = fifth day of ritonavir 100 mg bid vs before ritonavir; 8 healthy volunteers
[6] = Ritonavir plasma exposure during 5-day 100 mg bid therapy; format: in vivo, human

CYP2C19, sequence (P33261 whole entry): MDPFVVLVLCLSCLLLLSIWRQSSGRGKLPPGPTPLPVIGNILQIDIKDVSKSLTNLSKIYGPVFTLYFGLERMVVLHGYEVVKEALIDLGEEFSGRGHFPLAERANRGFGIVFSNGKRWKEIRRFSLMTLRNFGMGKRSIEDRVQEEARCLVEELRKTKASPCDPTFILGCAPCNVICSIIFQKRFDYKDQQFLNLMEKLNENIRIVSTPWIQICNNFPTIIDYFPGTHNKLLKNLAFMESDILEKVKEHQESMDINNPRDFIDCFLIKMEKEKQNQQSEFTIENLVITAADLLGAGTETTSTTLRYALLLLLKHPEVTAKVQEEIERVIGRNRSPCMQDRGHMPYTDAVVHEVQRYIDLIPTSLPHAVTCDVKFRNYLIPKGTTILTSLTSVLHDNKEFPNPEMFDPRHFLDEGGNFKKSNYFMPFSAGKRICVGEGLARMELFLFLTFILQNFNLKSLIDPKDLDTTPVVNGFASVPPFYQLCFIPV

## Cc1ncc2n1-c1ccc(Cl)cc1C(c1ccccc1F)=NC2 [Midazolam, midazolam]
[1]; from day 2 to day 5 of ritonavir treatment
  Midazolam AUC2–4 increase, times baseline values: 11.1–15.5 times baseline

## COc1ccc2[nH]c([S+]([O-])Cc3ncc(C)c(OC)c3C)nc2c1 (stereo not drawn) [Omeprazole, omeprazole]
[2]
  Decrease of omeprazole AUC0–4: approximately 35%

## O=C(NC[C@H]1CN(c2ccc(N3CCOCC3=O)cc2)C(=O)O1)c1ccc(Cl)s1 [Rivaroxaban, rivaroxaban]
[3]
  Exposure (AUC) increase of rivaroxaban: 2.5 fold
[4]
  AUCinf ratio: 2.37 ± 0.53
[5]
  Geometric mean ratio (GMR) AUC0–24: 1.87*

## CC(C)c1nc(CN(C)C(=O)N[C@H](C(=O)N[C@@H](Cc2ccccc2)C[C@H](O)[C@H](Cc2ccccc2)NC(=O)OCc2cncs2)C(C)C)cs1 [ritonavir]
[6]; human, plasma, oral, 100 mg
  AUC(0-t): 4590 to 5330 ng·h/mL
[6]; human, plasma, oral, 100 mg, Cmax of ritonavir, remaining 4 days of 100 mg bid
  Cmax: 1780 to 2110 ng/mL
[6]; two days after the last ritonavir dose, LLOQ 10 ng/mL
  Ritonavir plasma concentrations: close to or below the LLOQ
[1]; after a 5-day treatment course with ritonavir 100 mg bid
  Estimated time to full recovery of CYP3A4 activity: 10 to 12 days
